Assay results: the supplement of paper PMC13380429

Tests used:
Conditions in all cases: 72 h
Caco-2 [1] = assay: cell viability relative to DMSO; higher = less toxic
Calu-3 [2] = assay: as above
HepG2 [3] = assay: as above
U2OS [4] = assay: as above
Vero E6 [5] = assay: as above
Caco-2 [6] = assay: relative viability EC50 (midpoint between 100% and the lowest measured viability); higher = less toxic
Calu-3 [7] = assay: as above
HepG2 [8] = assay: as above
U2OS [9] = assay: as above
Vero E6 [10] = assay: as above
Caco-2 [11] = assay: drug sensitivity score (DSS) for viability; higher = more toxic; extreme values may be limits of the assay
Calu-3 [12] = assay: as above
HepG2 [13] = assay: as above
U2OS [14] = assay: as above
Vero E6 [15] = assay: as above

Structure (SMILES)	cell viability (Caco-2 [1]; 1 nM) [%]	cell viability (Caco-2 [1]; 10 nM) [%]	cell viability (Caco-2 [1]; 100 nM) [%]	cell viability (Caco-2 [1]; 1000 nM) [%]	cell viability (Caco-2 [1]; 10000 nM) [%]	cell viability (Calu-3 [2]; 1 nM) [%]	cell viability (Calu-3 [2]; 10 nM) [%]	cell viability (Calu-3 [2]; 100 nM) [%]	cell viability (Calu-3 [2]; 1000 nM) [%]	cell viability (Calu-3 [2]; 10000 nM) [%]	cell viability (HepG2 [3]; 1 nM) [%]	cell viability (HepG2 [3]; 10 nM) [%]	cell viability (HepG2 [3]; 100 nM) [%]	cell viability (HepG2 [3]; 1000 nM) [%]	cell viability (HepG2 [3]; 10000 nM) [%]	cell viability (U2OS [4]; 1 nM) [%]	cell viability (U2OS [4]; 10 nM) [%]	cell viability (U2OS [4]; 100 nM) [%]	cell viability (U2OS [4]; 1000 nM) [%]	cell viability (U2OS [4]; 10000 nM) [%]	cell viability (Vero E6 [5]; 1 nM) [%]	cell viability (Vero E6 [5]; 10 nM) [%]	cell viability (Vero E6 [5]; 100 nM) [%]	cell viability (Vero E6 [5]; 1000 nM) [%]	cell viability (Vero E6 [5]; 10000 nM) [%]	relative viability EC50 (Caco-2 [6]) [µM]	relative viability EC50 (Calu-3 [7]) [µM]	relative viability EC50 (HepG2 [8]) [µM]	relative viability EC50 (U2OS [9]) [µM]	relative viability EC50 (Vero E6 [10]) [µM]	drug sensitivity score (Caco-2 [11])	drug sensitivity score (Calu-3 [12])	drug sensitivity score (HepG2 [13])	drug sensitivity score (U2OS [14])	drug sensitivity score (Vero E6 [15])
CCC(=O)NCC[C@@H]1CCc2ccc3c(c21)CCO3 [ramelteon]	102	96.8	97.1	101	95.6	106	90.7	100	86.3	98.4	105	112	105	108	89	99.5	98.4	101	96.1	98.7	112	110	106	100	99.5	> 10	> 10	> 10	> 10	> 10	0	0	0	0	0
CCn1nc(C)c2c1C(c1ccccc1)=NCC(=O)N2 [ripazepam]	96.9	103	104	101	124	97.4	102	95.6	109	95.8	106	100	98.9	92.2	113	96.4	99.1	93.2	102	98.2	95.6	99.9	104	100	97.1	> 10	> 10	> 10	> 10	> 10	0	0	0	0	0
